Experiments:
TNFα = TNFα (Homo sapiens, UniProt P01375); assay: TNF FP assay; type: binding; conditions: TNF 20 nM, 25° C., 2 hours; read-out: TNFα FP IC50 KD
Description: TNF (20 nM) and Compound 36 in 47 mM HEPES pH 6.5, 47 mM NaCl, 0.9 mM EDTA, 0.007% Triton X-100 were incubated at 25° C. for 2 hours. Fluorescence data was read with an Envision and plotted versus Compound 36 concentration and fit to a single-site binding model. This assay was used to calculate the FP data in Table 7.

TNF [1] = biological target: T1, TNF (Homo sapiens, UniProt P01375); assay: Western blot of TNF degradation over time (Example 11, FIG. 24); type: cell-based; conditions: 0.5 μM compound
T1 sequence (P01375 77-233 limits assumed): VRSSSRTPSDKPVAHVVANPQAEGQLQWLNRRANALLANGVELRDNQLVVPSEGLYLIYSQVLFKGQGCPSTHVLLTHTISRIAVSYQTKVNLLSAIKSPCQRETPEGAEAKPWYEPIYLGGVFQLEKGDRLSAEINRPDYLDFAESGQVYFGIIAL

ASGPR = biological target: T2, ASGPR (Homo sapiens, UniProt P07306); assay: Affinity to ASGPR by surface plasmon resonance (SPR)
T2 sequence (P07306 1-291): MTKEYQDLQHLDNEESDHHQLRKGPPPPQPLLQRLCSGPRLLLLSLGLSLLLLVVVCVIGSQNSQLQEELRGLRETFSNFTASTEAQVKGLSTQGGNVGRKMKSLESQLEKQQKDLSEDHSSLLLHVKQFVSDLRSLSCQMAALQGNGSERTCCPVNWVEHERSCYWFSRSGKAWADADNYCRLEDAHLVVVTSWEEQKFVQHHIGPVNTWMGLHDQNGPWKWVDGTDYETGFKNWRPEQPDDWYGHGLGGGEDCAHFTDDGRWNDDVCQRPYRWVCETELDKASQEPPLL

TNF [2] = biological target: T1, TNF; assay: Western blot of ASGPR mediated uptake of TNF (Example 12, FIG. 25); type: cell-based
IgG-AF488 = assay: Western blot of IgG-AF488 degradation (Example 5, FIG. 10); type: cell-based
HepG2 cells [3] = assay: Cellular uptake assay of AF488-labeled antibody (HepG2); type: cell-based
Summary of the method: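 HepG2 cells given 100 nM AF488-labeled human IgG or DNP antibody plus serial dilutions of matching degrader (0.1% DMSO final), 6 h at 37° C. Methanol-fixed, DAPI-stained and imaged by high-content analysis. Value is the fraction of AF488-positive cells over total DAPI-counted cells.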

HepG2 cells [4] = assay: Cellular co-localization study (LAMP2 immunofluorescence); type: cell-based; conditions: 100 nM compound, 100 nM AF488-labeled DNP antibodies, 8 hours, FIG. 4
Description: To confirm that DNP-IgG was trafficked to the lysosome following uptake by the HepG2 cells, cells were stained with the lysosomal marker LAMP2, and the subcellular location of AF488-labeled DNP-IgG was visualized by immunofluorescence microscopy.
HepG2 cells were plated in DMEM supplemented with 10% FBS incubated for approximately 18 hours at 37° C./5% CO2. AF488-labeled DNP antibodies (100 nM) and either DMSO or 100 nM of Compound 28 were added to the cells and incubated at 37° C. for an additional 8 hours. Cells were fixed with 100% methanol for 20 minutes at −20° C. followed by incubation with blocking buffer (1×PBS containing 5% normal goat serum and 0.1% Triton X-100) for 1 hour at room temperature. Cells were stained with anti-LAMP2 (Abcam) at 4° C. for about 18 hours followed by treatment with goat anti-mouse IgG-AF647 for 2 hours at room temperature. Nuclei were stained with DAPI. Pictures were taken on a Leica fluorescence microscope at 40× magnification.

HepG2 cells [5] = assay: Cellular degradation assay of anti-DNP-AF488 antibody; type: cell-based; conditions: 0.2 μM compound, 1 μM anti-DNP-AF488, 16 hours uptake then wash, FIG. 3
Description: To observe degradation of IgG in cells, a mixture of fluorescently labeled DNP antibody and compound are added to HepG2 cells and cellular uptake occurs over 16 hours. Cells are then washed to remove extracellular antibody and compound and samples are taken at various time points after uptake to detect levels of intact and/or proteolytic fragments of the antibody heavy and light chains over time as a kinetic measurement of antibody degradation.
HepG2 cells were seeded in DMEM supplemented with 10% FBS into a 12-well plate at a final amount of 20,000 cells per well. After about 18 hours incubation, 1 μM anti-DNP-AF488 antibody and/or 0.2 μM Compound 28 was added to the cells and incubated for 16 hours. The next day, cells were washed once with cell culture media and replaced with cell culture medium lacking anti-DNP-AF488 antibody or Compound 28 and incubated for 0, 1, 2, 4, and 8 hours, respectively. Cells were washed and lysed in RIPA buffer with protease inhibitors. Cell lysates were separated by SDS-PAGE and the fluorescent anti-DNP-AF488 antibody degradation products were visualized by the iBright 1500 gel reader (ThermoFisher). Intracellular heavy and light chains of DNP-IgG are observed after 16 hours of uptake into HepG2 cells. […]

DNP-IgG = assay: Colocalization imaging of DNP-IgG uptake (Example 4, FIG. 11); type: cell-based
[6] = biological target: T3, ASGPR receptor on the cell surface (HepG2 cells) (Homo sapiens, UniProt P07306); assay: Ternary complex formation assay (flow cytometry, HepG2); type: cell-based; conditions: HepG2 cells
T3 construct: host or cells: HepG2
T3 sequence (P07306 1-291): T2 sequence (P07306 1-291)
T3 sequence (P07307 1-311 partner): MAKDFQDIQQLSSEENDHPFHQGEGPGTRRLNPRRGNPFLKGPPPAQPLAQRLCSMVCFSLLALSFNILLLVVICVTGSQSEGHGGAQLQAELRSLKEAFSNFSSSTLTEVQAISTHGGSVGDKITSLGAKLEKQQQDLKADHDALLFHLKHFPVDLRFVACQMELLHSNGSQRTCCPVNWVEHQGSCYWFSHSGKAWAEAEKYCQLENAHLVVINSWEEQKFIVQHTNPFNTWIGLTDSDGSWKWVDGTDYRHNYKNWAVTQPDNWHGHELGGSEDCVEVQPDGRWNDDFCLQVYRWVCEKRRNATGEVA
Summary of the method: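 HepG2 cells (1×10^5/well) incubated 1 h at 4 °C with 100 nM AF488-labeled anti-human IgG plus serial IgG-based degrader, or 100 nM AF488 rabbit anti-DNP plus serial DNP-based degrader. After washing, cell-associated AF488 MFI read by flow cytometry; peak MFI marks optimal degrader concentration for ternary complex.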

TNFα, sequence (P01375 77-233 limits assumed): as the sequence (P01375 77-233 limits assumed) above

Compound | IC50 (TNFα) [µM] | degradation of TNF over time (western blot) (TNF [1]) | Kd (ASGPR) [µM] | ASGPR kd (ASGPR; Table 7) [s⁻¹] | ASGPR mediated uptake of TNF (western blot) (TNF [2]) | degradation of IgG-AF488 (western blot) (IgG-AF488) | EC50, half-maximal concentration with respect to the peak ratio of antibody-positive cells (cellular uptake) (HepG2 cells [3]; DNP-antibody, HepG2 cells, FIG. 2) [µM] | EC50 (HepG2 cells [3]; Homo sapiens, HepG2, 6 h, read-out: Uptake Assay EC50 (nM)) [nM] | Uptake of DNP-IgG and co-localization with lysosomal marker LAMP2 (HepG2 cells [4]) | Loss of intact heavy chain of DNP-IgG observed after (HepG2 cells [5]) [h] | Loss of intact light chain of DNP-IgG observed after (HepG2 cells [5]) [h] | uptake of DNP-IgG (colocalization image) (DNP-IgG) | EC50 ([6]; EC50, half-maximal concentration with respect to the peak MFI (ternary complex formation), AF488-labeled DNP antibody, FIG. 1) [nM] | EC50 ([6]; Ternary Complex EC50 (nM), 100 nM AF488-labeled antibody, 1 hour at 4° C., class symbols) [nM]
O=C(CCOCC(COCCC(=O)NCCOCCOCCOCCOC[C@H]1OC[C@H](Nc2nccc(C(F)(F)F)n2)[C@@H](O)[C@H]1O)NC(=O)COCCOCCOCC(=O)N1CCN(Cc2ccc(-c3c[nH]c4ccncc34)c(OCCc3ccc(-c4cccc5ccncc45)cc3)c2)CC1)NCCOCCOCCOCCOC[C@H]1OC[C@H](Nc2nccc(C(F)(F)F)n2)[C@@H](O)[C@H]1O [Compound 36, 3,3′-((2-(2-(2-(2-(2-(4-(3-(4-(isoquinolin-8-yl)phenethoxy)-4-(1H-pyrrolo[3,2-c]pyridin-3-yl)benzyl)piperazin-1-yl)-2-oxoethoxy)ethoxy)ethoxy)acetamido)propane-1,3-diyl)bis(oxy))bis(N-(1-((2R,3R,4R,5S)-3,4-dihydroxy-5-((4-(trifluoromethyl)pyrimidin-2-yl)amino)tetrahydro-2H-pyran-2-yl)-2,5,8,11-tetraoxatridecan-13-yl)propanamide)] | < 0.5 | degradation of TNF | < 0.001 | <0.01 | ASGPR mediated uptake of TNF | – | – | – | – | – | – | – | – | –
O=C(CCOCC(COCCC(=O)NCCOCCOCCOCCOC[C@H]1OC[C@@H](Nc2nc(Cl)ns2)[C@@H](O)[C@H]1O)NC(=O)COCCOCCOCCNc1ccc([N+](=O)[O-])cc1[N+](=O)[O-])NCCOCCOCCOCCOC[C@H]1OC[C@@H](Nc2nc(Cl)ns2)[C@@H](O)[C@H]1O [Compound 28, 3,3′-((2-(2-(2-(2-(2-((2,4-dinitrophenyl)amino)ethoxy)ethoxy)ethoxy)acetamido)propane-1,3-diyl)bis(oxy))bis(N-(1-((2R,3R,4R,5R)-5-((3-chloro-1,2,4-thiadiazol-5-yl)amino)-3,4-dihydroxytetrahydro-2H-pyran-2-yl)-2,5,8,11-tetraoxatridecan-13-yl)propanamide)] | – | – | < 0.1 | – | – | degradation of IgG-AF488 | 0.0038 | < 100 | DNP-IgG was taken up into the cells and co-localized with the lysosomal marker LAMP2 | 1 | 8 | uptake of DNP-IgG | 4.7 | < 100
